Active and inactive are the calls of the source.
Legend:
[1] = biological target: DNA dC->dU-editing enzyme APOBEC-3G (Homo sapiens, UniProt Q9HC16); type: functional;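 note: Dose-response counterscreen measuring inhibition of APOBEC3G DNA deaminase activity, run while confirming APOBEC3A inhibitors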
[2] = biological target: DNA dC->dU-editing enzyme APOBEC-3A (Homo sapiens, UniProt P31941); assay: Dose Response confirmation of small molecule APOBEC3A DNA Deaminase Inhibitors via a fluorescence-based single-stranded DNA deaminase assay. [Related pubchem assays (depositor defined):AID493011, AID493024]; type: functional
DNA dC->dU-editing enzyme APOBEC-3A, sequence (P31941 whole entry): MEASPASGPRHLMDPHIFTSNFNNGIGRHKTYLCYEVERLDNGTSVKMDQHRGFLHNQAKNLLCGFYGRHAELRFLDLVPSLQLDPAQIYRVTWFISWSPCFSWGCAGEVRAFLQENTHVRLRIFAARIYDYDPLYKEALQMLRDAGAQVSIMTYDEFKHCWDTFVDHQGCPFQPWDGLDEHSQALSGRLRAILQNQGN

[3] = biological target: T1, Heat shock factor protein 1 (Mus musculus, UniProt P38532); assay: inhibition of MG132-induced HSE-luciferase signal, confirmation, cell-based, NIH3T3, luminescence, dose retest (AID 2382); type: functional;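 note: NIH3T3 fibroblasts with HSF1-driven luciferase reporter stressed by proteasome inhibitor MG132; luminescence from HSF1-driven luciferase expression after 8 hours of MG132 stress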
T1 sequence (P38532 whole entry): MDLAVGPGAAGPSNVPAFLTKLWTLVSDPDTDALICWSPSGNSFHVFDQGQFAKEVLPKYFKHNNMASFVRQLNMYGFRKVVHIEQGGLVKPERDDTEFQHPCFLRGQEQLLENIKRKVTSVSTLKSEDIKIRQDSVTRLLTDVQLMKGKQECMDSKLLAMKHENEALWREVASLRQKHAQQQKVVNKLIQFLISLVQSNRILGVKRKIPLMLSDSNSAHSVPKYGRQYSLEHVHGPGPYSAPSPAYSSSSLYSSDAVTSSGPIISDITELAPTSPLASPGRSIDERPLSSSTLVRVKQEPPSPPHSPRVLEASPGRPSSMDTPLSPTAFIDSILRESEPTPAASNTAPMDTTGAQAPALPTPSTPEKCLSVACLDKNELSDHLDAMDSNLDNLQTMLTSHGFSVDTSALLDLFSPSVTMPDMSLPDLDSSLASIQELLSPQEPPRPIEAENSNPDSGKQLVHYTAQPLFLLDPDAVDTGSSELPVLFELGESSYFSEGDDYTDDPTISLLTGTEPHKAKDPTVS

INS1 = assay: beta cell apoptosis inhibitors, cytokine rescue, dose response, luminescence, retest (AID 449756); type: functional, cell-based; conditions: Rattus norvegicus;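 note: cell death triggered by IL-1 beta plus TNF-alpha plus IFN-gamma mixture; protective hits raise ATP signal compared with cytokine alone wells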
Hexokinase-1 = biological target: T2, Hexokinase-1 (Homo sapiens, UniProt P19367); assay: hexokinase 1 activators, dose response, selectivity assay for HKDC1 activator project, biochemical (AID 504762); type: functional
T2 sequence (P19367 whole entry): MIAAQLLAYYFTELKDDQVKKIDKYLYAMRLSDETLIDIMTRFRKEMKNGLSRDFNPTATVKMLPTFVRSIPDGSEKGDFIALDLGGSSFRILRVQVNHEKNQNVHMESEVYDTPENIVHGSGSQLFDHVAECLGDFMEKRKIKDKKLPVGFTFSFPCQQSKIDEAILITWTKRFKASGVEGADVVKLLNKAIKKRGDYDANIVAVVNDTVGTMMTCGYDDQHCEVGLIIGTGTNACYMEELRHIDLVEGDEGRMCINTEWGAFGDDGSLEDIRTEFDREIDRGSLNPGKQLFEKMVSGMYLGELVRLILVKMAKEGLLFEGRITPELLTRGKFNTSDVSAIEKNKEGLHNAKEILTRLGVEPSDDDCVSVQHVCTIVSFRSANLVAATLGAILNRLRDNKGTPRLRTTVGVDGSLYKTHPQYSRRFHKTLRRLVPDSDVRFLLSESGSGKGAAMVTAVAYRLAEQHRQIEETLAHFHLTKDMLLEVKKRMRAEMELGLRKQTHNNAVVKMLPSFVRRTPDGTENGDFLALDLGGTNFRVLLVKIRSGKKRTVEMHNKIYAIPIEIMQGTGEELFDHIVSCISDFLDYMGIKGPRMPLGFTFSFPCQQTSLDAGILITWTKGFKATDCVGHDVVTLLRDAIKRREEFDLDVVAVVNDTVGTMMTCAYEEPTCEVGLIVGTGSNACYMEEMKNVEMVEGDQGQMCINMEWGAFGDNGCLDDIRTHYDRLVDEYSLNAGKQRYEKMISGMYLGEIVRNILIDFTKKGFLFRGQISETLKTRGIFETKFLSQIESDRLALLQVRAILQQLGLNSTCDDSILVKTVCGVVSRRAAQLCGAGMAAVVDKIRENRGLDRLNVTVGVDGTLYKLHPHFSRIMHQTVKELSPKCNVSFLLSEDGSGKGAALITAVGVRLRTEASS

Hexokinase HKDC1 = biological target: T3, Hexokinase HKDC1 (Homo sapiens, UniProt Q2TB90); assay: HKDC1 hexokinase activators, dose response, biochemical, W721R variant (AID 504730); type: functional
T3 sequence (Q2TB90 whole entry): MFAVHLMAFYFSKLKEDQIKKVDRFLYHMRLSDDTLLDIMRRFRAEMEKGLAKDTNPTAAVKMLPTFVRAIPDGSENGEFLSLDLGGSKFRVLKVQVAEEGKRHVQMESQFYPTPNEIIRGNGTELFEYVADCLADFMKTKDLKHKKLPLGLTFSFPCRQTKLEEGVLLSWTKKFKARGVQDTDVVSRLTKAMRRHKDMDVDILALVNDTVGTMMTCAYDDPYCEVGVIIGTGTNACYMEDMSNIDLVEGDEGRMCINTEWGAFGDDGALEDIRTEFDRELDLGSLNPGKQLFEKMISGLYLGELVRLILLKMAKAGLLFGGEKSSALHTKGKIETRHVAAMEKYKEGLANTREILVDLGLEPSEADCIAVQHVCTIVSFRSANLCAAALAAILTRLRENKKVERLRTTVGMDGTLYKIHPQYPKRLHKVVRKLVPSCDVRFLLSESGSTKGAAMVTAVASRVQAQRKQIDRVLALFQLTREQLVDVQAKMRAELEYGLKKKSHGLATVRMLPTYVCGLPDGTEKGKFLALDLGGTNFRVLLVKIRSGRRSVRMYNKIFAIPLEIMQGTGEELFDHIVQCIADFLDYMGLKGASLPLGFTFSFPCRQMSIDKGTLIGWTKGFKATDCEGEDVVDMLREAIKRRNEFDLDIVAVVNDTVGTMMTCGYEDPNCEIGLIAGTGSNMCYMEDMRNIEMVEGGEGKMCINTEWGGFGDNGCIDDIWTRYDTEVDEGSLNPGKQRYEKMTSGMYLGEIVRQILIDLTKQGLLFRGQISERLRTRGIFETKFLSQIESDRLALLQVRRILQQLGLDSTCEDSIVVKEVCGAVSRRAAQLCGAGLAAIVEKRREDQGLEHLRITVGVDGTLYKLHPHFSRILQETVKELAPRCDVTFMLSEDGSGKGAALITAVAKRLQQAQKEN

[4] = biological target: T4, Tyrosine-protein phosphatase non-receptor type 22 (Homo sapiens, UniProt Q9Y2R2); type: functional
T4 sequence (Q9Y2R2 whole entry): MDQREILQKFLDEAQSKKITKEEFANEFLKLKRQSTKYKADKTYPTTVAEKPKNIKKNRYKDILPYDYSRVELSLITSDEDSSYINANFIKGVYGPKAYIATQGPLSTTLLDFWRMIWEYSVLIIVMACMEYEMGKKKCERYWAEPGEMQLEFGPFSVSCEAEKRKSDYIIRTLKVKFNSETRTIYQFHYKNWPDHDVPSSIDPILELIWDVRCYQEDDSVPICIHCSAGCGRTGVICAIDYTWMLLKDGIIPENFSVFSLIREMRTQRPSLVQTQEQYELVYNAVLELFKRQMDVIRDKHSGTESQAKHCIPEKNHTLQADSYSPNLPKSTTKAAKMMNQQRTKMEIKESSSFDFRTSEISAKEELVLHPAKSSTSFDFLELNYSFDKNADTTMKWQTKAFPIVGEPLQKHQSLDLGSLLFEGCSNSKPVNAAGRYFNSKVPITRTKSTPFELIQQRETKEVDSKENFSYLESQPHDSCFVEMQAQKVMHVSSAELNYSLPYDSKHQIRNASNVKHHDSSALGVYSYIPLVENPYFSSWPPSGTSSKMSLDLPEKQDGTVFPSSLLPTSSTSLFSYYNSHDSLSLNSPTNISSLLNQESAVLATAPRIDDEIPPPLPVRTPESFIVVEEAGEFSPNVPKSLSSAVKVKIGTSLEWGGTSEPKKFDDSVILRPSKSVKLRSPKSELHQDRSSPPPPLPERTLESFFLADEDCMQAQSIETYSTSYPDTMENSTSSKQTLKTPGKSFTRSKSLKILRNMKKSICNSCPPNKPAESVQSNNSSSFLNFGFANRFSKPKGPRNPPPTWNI

[5] = biological target: T5, Tyrosine-protein phosphatase non-receptor type 7 (Homo sapiens, UniProt P35236); type: functional
T5 sequence (P35236 whole entry): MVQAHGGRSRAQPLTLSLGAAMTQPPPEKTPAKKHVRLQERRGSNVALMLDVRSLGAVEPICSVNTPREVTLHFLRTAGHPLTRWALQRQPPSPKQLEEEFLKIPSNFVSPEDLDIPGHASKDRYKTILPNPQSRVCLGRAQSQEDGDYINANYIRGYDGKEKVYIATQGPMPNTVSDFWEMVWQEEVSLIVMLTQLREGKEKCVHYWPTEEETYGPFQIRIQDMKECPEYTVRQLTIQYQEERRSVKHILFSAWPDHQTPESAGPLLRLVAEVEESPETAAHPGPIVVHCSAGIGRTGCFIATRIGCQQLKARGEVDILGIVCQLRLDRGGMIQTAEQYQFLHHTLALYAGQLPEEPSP

[6] = biological target: T4, Tyrosine-protein phosphatase non-receptor type 22; type: functional; remark: listed apart in the source
[7] = biological target: T5, Tyrosine-protein phosphatase non-receptor type 7; assay: redox-dependent HePTP inhibition, mechanism study, biochemical, fluorescence (AID 2068); type: functional
Streptococcus = assay: Group A Streptococcus viability loss, dose response, counter-screen for streptokinase expression inhibitor project, luminescence, BacTiterGlo (AID 1915); type: functional, organism-based;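 note: potency for reduction of bacterial viability or growth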
Beta-galactosidase = Beta-galactosidase (Escherichia coli, UniProt Q8VNN2); assay: PubChem AID 485352; type: functional
Beta-galactosidase, sequence (Q8VNN2 whole entry): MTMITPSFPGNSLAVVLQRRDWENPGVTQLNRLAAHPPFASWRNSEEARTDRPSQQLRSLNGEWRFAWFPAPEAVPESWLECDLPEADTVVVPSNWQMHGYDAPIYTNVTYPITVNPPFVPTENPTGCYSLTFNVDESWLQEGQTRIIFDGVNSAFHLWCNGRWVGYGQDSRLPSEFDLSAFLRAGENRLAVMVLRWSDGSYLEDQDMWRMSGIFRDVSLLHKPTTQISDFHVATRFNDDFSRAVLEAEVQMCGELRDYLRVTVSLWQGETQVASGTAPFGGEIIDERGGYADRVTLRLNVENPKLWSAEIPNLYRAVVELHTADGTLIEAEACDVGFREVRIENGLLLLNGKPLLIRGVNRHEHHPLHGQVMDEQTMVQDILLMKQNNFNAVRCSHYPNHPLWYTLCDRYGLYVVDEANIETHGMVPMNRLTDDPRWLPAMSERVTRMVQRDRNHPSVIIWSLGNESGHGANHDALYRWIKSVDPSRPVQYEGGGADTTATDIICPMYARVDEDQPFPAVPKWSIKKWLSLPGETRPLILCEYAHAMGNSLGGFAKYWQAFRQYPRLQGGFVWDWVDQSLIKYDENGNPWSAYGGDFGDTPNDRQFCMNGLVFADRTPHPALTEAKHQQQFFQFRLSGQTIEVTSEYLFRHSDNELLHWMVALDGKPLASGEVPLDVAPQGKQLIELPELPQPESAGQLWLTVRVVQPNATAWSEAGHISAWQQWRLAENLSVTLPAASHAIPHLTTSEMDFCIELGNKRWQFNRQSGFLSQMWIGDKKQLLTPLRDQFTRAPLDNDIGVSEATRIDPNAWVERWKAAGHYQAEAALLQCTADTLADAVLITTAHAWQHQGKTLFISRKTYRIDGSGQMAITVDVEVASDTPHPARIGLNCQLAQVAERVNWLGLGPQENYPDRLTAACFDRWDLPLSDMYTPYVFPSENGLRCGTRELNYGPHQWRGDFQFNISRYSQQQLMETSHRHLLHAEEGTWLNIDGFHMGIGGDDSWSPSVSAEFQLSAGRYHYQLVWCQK

[8] = inhibitors of firefly luciferase expression or activity, dose response, H4 neuroglioma cells, luminescence (AID 1990); type: functional, cell-based
[9] = system: Streptococcus sp. 'group A'; assay: growth inhibition of control SK(-) GAS strain, dose response, counter-screen for streptokinase expression inhibitor project, luminescence, kanamycin, BacTiterGlo, confirmation (AID 1900); type: functional, organism-based
[10] = inhibitors of SNCA 5'UTR-driven reporter translation, confirmation, H4 neuroglioma cells, luminescence (AID 1988); type: functional, cell-based
[11] = Luminescence Cell-Based Dose Response HTS to Identify Inhibitors of 5'UTR Stem-Loop Driven Prion Protein mRNA Translation in H4 Neuroglioblastoma Cells. [Related pubchem assays: 1827 (Project Summary), 1813 (Primary HTS)]; type: functional
[12] = biological target: T6, Type-1 angiotensin II receptor (Homo sapiens, UniProt P30556); assay: AT1 receptor antagonists, dose response, selectivity assay for APJ receptor antagonist project, cell-based, uHTS hits (AID 463214); type: functional;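 note: antagonist potency against angiotensin II stimulated AT1 response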
T6 sequence (P30556 whole entry): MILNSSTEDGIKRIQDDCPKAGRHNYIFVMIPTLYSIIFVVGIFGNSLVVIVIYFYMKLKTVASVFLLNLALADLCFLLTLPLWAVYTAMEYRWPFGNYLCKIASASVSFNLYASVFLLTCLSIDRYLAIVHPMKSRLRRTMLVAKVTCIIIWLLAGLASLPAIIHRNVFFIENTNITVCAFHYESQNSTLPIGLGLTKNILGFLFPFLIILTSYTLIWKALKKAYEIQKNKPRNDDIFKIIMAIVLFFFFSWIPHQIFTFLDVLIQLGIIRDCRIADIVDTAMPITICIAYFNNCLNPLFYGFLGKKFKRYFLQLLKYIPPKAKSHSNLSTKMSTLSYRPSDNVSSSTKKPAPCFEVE

[13] = A Cell Based Secondary Assay To Explore Cytotoxicity of Compounds that Sensitize Mycobacterium Tuberculosis to Beta-Lactam Antibiotics.; type: functional

DNA dC->dU-editing enzyme APOBEC-3G, sequence (Q9HC16 whole entry): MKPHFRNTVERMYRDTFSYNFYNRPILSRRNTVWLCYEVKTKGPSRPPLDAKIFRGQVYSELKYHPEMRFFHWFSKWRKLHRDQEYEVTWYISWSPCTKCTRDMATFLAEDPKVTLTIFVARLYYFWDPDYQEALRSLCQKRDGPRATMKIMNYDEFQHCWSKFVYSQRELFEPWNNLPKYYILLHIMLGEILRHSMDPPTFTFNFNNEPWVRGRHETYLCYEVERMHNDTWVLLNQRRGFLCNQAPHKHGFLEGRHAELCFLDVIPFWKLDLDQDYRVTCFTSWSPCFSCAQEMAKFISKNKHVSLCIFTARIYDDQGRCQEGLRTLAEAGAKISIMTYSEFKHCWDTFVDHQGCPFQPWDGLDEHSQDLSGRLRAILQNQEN

## CCC(CO)(C(=O)OC1C[N+]2(C)CCC1CC2)c1ccccc1 (configuration not stated)
[1]
  IC50: 2.09 µM (active)
[2]
  IC50: 2.25 µM (active)

## CCn1c(C)[n+](CC)c2cc(S(=O)(=O)NC)ccc21
[1]
  IC50: 17.5 µM (active)
[2]
  IC50: 6.81 µM (active)

## CCc1ccc(C2=NN=C(Nc3cccc(S(=O)(=O)N(C)C)c3)SC2)cc1
[3]
  EC50: > 195 µM (not active)
INS1
  AC50: 7.54 µM (active)
Hexokinase-1
  EC50: 8.26 µM (active)
Hexokinase HKDC1
  EC50: 10.3 µM (active)

## Cc1ccc(C(=O)O)cc1NC(=O)c1ccc2c(c1)C(=O)N(c1ccc([N+](=O)[O-])cc1)C2=O
[4]
  IC50: 21.6 µM (active)
[5]
  IC50: 10.9 µM (active)
[6]
  IC50: 15 µM (active)

## O=C(NCc1ccc2c(c1)OCO2)Nc1ccc2nc(-c3ccco3)c(-c3ccco3)nc2c1
[7]
  IC50: 2.15 µM (active)

## CCCCN(CCCC)C(=S)N/N=C/c1c(C)nn(-c2ccccc2)c1O
Streptococcus
  EC50: 11.4 µM (active)
Beta-galactosidase
  EC50: > 40 µM (inactive)
[8]
  EC50: 13.3 µM (active)
[9]
  EC50: 0.221 µM (active)
[10]
  EC50: > 120 µM (not active)
[11]
  EC50: 4.19 µM (active)
Hexokinase-1
  EC50: > 80 µM (inactive)
[12]
  IC50: 13.3 µM (active)
[13]
  CC50: 5.22 µM (active)
Hexokinase HKDC1
  EC50: 28.7 µM (inactive)

— ChEMBL document CHEMBL1201862, “PubChem BioAssay data set” (2004)
